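Growth conditions: 96-well plates. Treatment: test compound, 48 hours, 5 concentrations. Analysis: linear interpolation between bracketing concentrations; unreached endpoints set to highest concentration. Here, GI50 denotes the concentration required for 50% inhibition of growth.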 Calls of active or inactive are those of the source. No stated cut-off is given here; in the data, active = GI50 up to about 1.1 µM and inactive = higher.
What was measured:
Assay in all cases: DTP human tumour cell line panel, 48 h
HT-29 = system: HT-29
UACC-62 = system: UACC-62
RXF 393 = system: RXF 393
SF-268 = system: SF-268
ACHN = system: ACHN
SW-620 = system: SW-620
SK-OV-3 = system: SK-OV-3
UACC-257 = system: UACC-257
MOLT-4 = system: MOLT-4
M14 = system: M14
HOP-92 = system: HOP-92
U-251 = system: U-251
SR = system: SR
OVCAR-3 = system: OVCAR-3
NCI-H23 = system: NCI-H23
T47D = system: T47D
CAKI-1 = system: CAKI-1
MDA-N = system: MDA-N
MDA-MB-435 = system: MDA-MB-435
UO-31 = system: UO-31
OVCAR-4 = system: OVCAR-4
SK-MEL-2 = system: SK-MEL-2
LOX IMVI = system: LOX IMVI
RPMI-8226 = system: RPMI-8226
HOP-62 = system: HOP-62
TK-10 = system: TK-10
EKVX = system: EKVX
MDA-MB-231 = system: MDA-MB-231
Hs-578T = system: Hs-578T
NCI-H226 = system: NCI-H226
KM12 = system: KM12
Malme-3M = system: Malme-3M
OVCAR-8 = system: OVCAR-8
IGROV-1 = system: IGROV-1
SN12C = system: SN12C
A498 = system: A498
DU-145 = system: DU-145
COLO 205 = system: COLO 205
SF-539 = system: SF-539
NCI-H522 = system: NCI-H522
786-0 = system: 786-0
SK-MEL-28 = system: SK-MEL-28
CCRF-CEM = system: CCRF-CEM
SNB-19 = system: SNB-19
SF-295 = system: SF-295
OVCAR-5 = system: OVCAR-5
HCC 2998 = system: HCC 2998
MCF7 = system: MCF7
HCT-116 = system: HCT-116
BT-549 = system: BT-549
A549 = system: A549
HCT-15 = system: HCT-15
SK-MEL-5 = system: SK-MEL-5
SNB-75 = system: SNB-75
NCI-H460 = system: NCI-H460
PC-3 = system: PC-3
K562 = system: K562
HL-60 = system: HL-60
NCI/ADR-RES = system: NCI/ADR-RES

Measured: GI50

COC(=O)/C=C/c1ccc(OP(=O)(O)O)c(OC)c1
inactive: HT-29 > 100 µM | UACC-62 > 100 µM | RXF 393 > 100 µM | SF-268 > 100 µM | ACHN > 100 µM | SW-620 > 100 µM | SK-OV-3 > 100 µM | UACC-257 > 100 µM | MOLT-4 > 100 µM | M14 > 100 µM | HOP-92 > 100 µM | U-251 > 100 µM | SR > 100 µM | OVCAR-3 > 100 µM | NCI-H23 > 100 µM | T47D > 100 µM | CAKI-1 > 100 µM | MDA-N > 100 µM | MDA-MB-435 > 100 µM | UO-31 > 100 µM | OVCAR-4 > 100 µM | SK-MEL-2 > 100 µM | LOX IMVI > 100 µM | RPMI-8226 > 100 µM | HOP-62 > 100 µM | TK-10 > 100 µM | EKVX > 100 µM | MDA-MB-231 > 100 µM | Hs-578T > 100 µM | NCI-H226 > 100 µM | KM12 > 100 µM | Malme-3M > 100 µM | OVCAR-8 > 100 µM | IGROV-1 > 100 µM | SN12C > 100 µM | A498 > 100 µM | DU-145 > 100 µM | COLO 205 > 100 µM | SF-539 > 100 µM | NCI-H522 > 100 µM | 786-0 > 100 µM | SK-MEL-28 > 100 µM | CCRF-CEM > 100 µM | SNB-19 > 100 µM | SF-295 > 100 µM | OVCAR-5 > 100 µM | HCC 2998 > 100 µM | MCF7 > 100 µM | HCT-116 > 100 µM | BT-549 > 100 µM | A549 > 100 µM | SK-MEL-5 > 100 µM | SNB-75 > 100 µM | NCI-H460 > 100 µM | PC-3 > 100 µM
> 100 µM: HCT-15

O/N=C1/C2CC3CC1(c1ccccc1)CC(/C3=N/O)/C2=N\O (stereo not drawn)
> 100 µM: HCT-15
inactive: HT-29 > 100 µM | UACC-62 > 100 µM | RXF 393 > 100 µM | ACHN > 100 µM | SW-620 > 100 µM | SK-OV-3 > 100 µM | UACC-257 > 100 µM | MOLT-4 > 100 µM | K562 > 100 µM | M14 > 100 µM | U-251 > 100 µM | SR > 100 µM | OVCAR-3 > 100 µM | NCI-H23 > 100 µM | T47D > 100 µM | CAKI-1 > 100 µM | MDA-N > 100 µM | MDA-MB-435 > 100 µM | UO-31 > 100 µM | OVCAR-4 > 100 µM | SK-MEL-2 > 100 µM | LOX IMVI > 100 µM | RPMI-8226 > 100 µM | HOP-62 > 100 µM | TK-10 > 100 µM | EKVX > 100 µM | MDA-MB-231 > 100 µM | Hs-578T > 100 µM | NCI-H226 > 100 µM | KM12 > 100 µM | Malme-3M > 100 µM | OVCAR-8 > 100 µM | SN12C > 100 µM | A498 > 100 µM | DU-145 > 100 µM | COLO 205 > 100 µM | SF-539 > 100 µM | NCI-H522 > 100 µM | 786-0 > 100 µM | SK-MEL-28 > 100 µM | CCRF-CEM > 100 µM | SNB-19 > 100 µM | SF-295 > 100 µM | OVCAR-5 > 100 µM | HCC 2998 > 100 µM | MCF7 > 100 µM | HCT-116 > 100 µM | BT-549 > 100 µM | A549 > 100 µM | SK-MEL-5 > 100 µM | SNB-75 > 100 µM | HL-60 > 100 µM | NCI-H460 > 100 µM | PC-3 95.9 µM

COc1cc(OC)cc(C(=O)CC(=O)c2cc(OC)cc(OC)c2)c1
inactive: UACC-62 > 100 µM | RXF 393 > 100 µM | SF-268 > 100 µM | ACHN > 100 µM | SW-620 95.1 µM | SK-OV-3 > 100 µM | UACC-257 > 100 µM | MOLT-4 > 100 µM | K562 46.1 µM | M14 > 100 µM | HOP-92 > 100 µM | U-251 > 100 µM | SR 47.8 µM | OVCAR-3 > 100 µM | NCI-H23 > 100 µM | T47D > 100 µM | MDA-N > 100 µM | MDA-MB-435 87.5 µM | NCI/ADR-RES > 100 µM | UO-31 > 100 µM | RPMI-8226 > 100 µM | HOP-62 > 100 µM | TK-10 > 100 µM | EKVX > 100 µM | Hs-578T > 100 µM | NCI-H226 > 100 µM | KM12 > 100 µM | Malme-3M > 100 µM | OVCAR-8 > 100 µM | IGROV-1 > 100 µM | SN12C > 100 µM | A498 > 100 µM | DU-145 > 100 µM | COLO 205 > 100 µM | SF-539 > 100 µM | 786-0 > 100 µM | SK-MEL-28 > 100 µM | CCRF-CEM 63.5 µM | SNB-19 > 100 µM | SF-295 > 100 µM | OVCAR-5 > 100 µM | HCC 2998 > 100 µM | MCF7 > 100 µM | HCT-116 69.2 µM | BT-549 > 100 µM | A549 > 100 µM | SK-MEL-5 > 100 µM | SNB-75 > 100 µM | HL-60 6.01 µM | NCI-H460 56.9 µM | PC-3 94.4 µM
68.9 µM: HCT-15

Source: ChEMBL document CHEMBL1201862, “PubChem BioAssay data set” (2004)
